Here are results for 30 compounds from patent US20060264460A1 (Wyeth, priority 2005, published 2006).

Broadly, the IC50 is the concentration that inhibits the measured activity by half. The low end stands for greater potency in that assay, the high end for weaker potency in that assay.

The structures appear in SMILES notation. Some results are limits rather than exact numbers.

T1 sequence (P41279 30-398): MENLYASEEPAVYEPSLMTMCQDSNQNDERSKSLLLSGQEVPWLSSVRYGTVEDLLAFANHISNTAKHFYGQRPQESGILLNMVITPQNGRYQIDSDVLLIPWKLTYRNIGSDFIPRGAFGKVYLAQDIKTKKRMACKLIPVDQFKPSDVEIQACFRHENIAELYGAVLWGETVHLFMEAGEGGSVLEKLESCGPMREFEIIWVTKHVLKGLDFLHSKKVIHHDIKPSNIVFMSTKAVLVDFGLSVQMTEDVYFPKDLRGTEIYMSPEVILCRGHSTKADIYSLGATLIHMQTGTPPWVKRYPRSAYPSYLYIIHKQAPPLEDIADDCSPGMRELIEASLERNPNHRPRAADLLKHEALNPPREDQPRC

The assay concerns the target T1, human Cot/Tpl2 kinase (Homo sapiens, UniProt P41279).
T1 construct: human Cot/Tpl2 kinase construct encoding residues 30-398; 6His (N); made in house; host or cells: Sf9 insect cells, baculovirus system (BD Biosciences)
Put plainly: Tpl2/Cot kinase assay: GST-MEK1 phosphorylation detected by ELISA (DELFIA Eu). Format: biochemical. To be noted: 0.4 nM Tpl2, 35 nM GST-MEK1, 50 uM ATP, 1 h at 30° C. On the procedure: Sf9 cells expressing the kinase were lysed in 50 mM NaPhosphate pH=8; 300 mM NaCl; 5 mM imidazole; 0.1 mM EGTA; 25 mM beta-glycerophosphate; 1% TX-100, 1% glycerol; 6 mM beta-mercaptoethanol and protease inhibitors. The lysate was clarified by centrifugation and was loaded onto a Ni-Sepharose column. The column was washed with 50 mM NaPhosphate pH=8; 300 mM NaCl; 15 mM imidazole; 1% glycerol; and 6 mM beta-mercaptoethanol. His-Tpl2 was eluted with 50 mM NaPhosphate pH=8; 300 mM NaCl; 250 mM imidazole; 1% glycerol; and 6 mM beta-mercaptoethanol. The eluted protein was further purified by size exclusion chromatography. Fractions corresponding to monomeric Tpl2 were then used in the assay.
Tpl2/Cot activity was directly assayed using GST-MEK1 as a substrate. GST-MEK1 phosphorylation on serine residues 217 and 221 was detected by ELISA. 0.4 nM Tpl2 was incubated with 35 nM GST-MEK1 in a kinase reaction buffer containing 20 mM MOPS pH=7.2; 50 uM ATP; 20 mM MgCl2; 1 mM DTT; 25 mM β-glycerophosphate; 5 mM EGTA; and 1 mM sodium orthovanadate for 1 h at 30° C. The compounds of the inventions solubilized in 100% DMSO were pre-diluted in assay buffer so that the final concentration of DMSO in the reaction was 1%. The kinase reaction was carried out in 100 ul volume on 96 well plates. The kinase reaction was then stopped with the addition of 100 mM EDTA. […] After a 1 hour incubation at room temperature, the detection plate was washed 4 times with TBST (TBS+0.05% Tween 20) and then incubated for another hour at room temperature with anti phospho-MEK1 antibody (Cell Signaling) 1:1000 in 10 mM MOPS 7.5; 150 mM NaCl; 0.05% Tween 20; 0.1% Gelatin; 0.02% NaN3; and 1% BSA. The detection plate was washed again and incubated for 30 min with DELFIA Europium (Eu) labeled goat anti-rabbit IgG (Perkin-Elmer), 1:4000 in the same buffer used for the primary incubation. After a final wash, Eu detection solution was added to each well and the Eu signal was measured in a Wallac Victor^2 Multilabel Counter. IC50 calculations were performed using the XLfit software package (IDBS, Guildford, UK).
`N#Cc1cnc2ccc(NCc3ccc[n+]([O-])c3)cc2c1Nc1ccc(F)c(Cl)c1` [Example 30, 4-(3-Chloro-4-fluoro-phenylamino)-6-[(1-oxy-pyridin-3-ylmethyl)-amino]-quinoline-3-carbonitrile] returned an IC50 of 130 nM. Consider `Cc1cc(CNc2ccc3ncc(C#N)c(Nc4ccc(F)c(Cl)c4)c3c2)n[nH]1` [Example 31, 4-(3-Chloro-4-fluoro-phenylamino)-6-[(5-methyl-1 H-pyrazol-3-ylmethyl)-amino]-quinoline-3-carbonitrile], for which the IC50 was 110 nM.

`COc1cc(NCc2cccnc2)cc2c(Nc3ccc(C)c(O)c3)c(C#N)cnc12` [Example 32, 4-(3-Hydroxy-4-methyl-phenylamino)-8-methoxy-6-[(pyridin-3-ylmethyl)-amino]-quinoline-3-carbonitrile] came in with an IC50 greater than 40000 nM. Compound `Cc1cc(CNc2ccc3ncc(C#N)c(Nc4ccc(F)c(Cl)c4)c3c2)n(C)n1` [Example 33, 4-(3-Chloro-4-fluoro-phenylamino)-6-[(2,5-dimethyl-2H-pyrazol-3-ylmethyl)-amino]-quinoline-3-carbonitrile] displayed an IC50 of 200 nM. Turning to `N#Cc1cc(CNc2ccc3ncc(C#N)c(Nc4ccc(F)c(Cl)c4)c3c2)ccc1OCC(=O)O` [Example 34, (4-{[4-(3-Chloro-4-fluoro-phenylamino)-3-cyano-quinolin-6-ylamino]-methyl}-2-cyano-phenoxy)-acetic acid], half-maximal inhibition (IC50) was put at 260 nM.

`N#Cc1cnc2ccc(NCc3c[nH]nc3-c3cccs3)cc2c1Nc1ccc(F)c(Cl)c1` [Example 35, 4-(3-Chloro-4-fluoro-phenylamino)-6-[(3-thiophen-2-yl-1H-pyrazol-4-ylmethyl)-amino]-quinoline-3-carbonitrile] registered an IC50 of 1800 nM. Consider `N#Cc1cnc2ccc(NCc3ccccc3)cc2c1Nc1ccc(F)c(Cl)c1` [Example 36, 6-Benzylamino-4-(3-chloro-4-fluoro-phenylamino)-quinoline-3-carbonitrile], for which the IC50 was 630 nM. `N#Cc1cnc2ccc(NCc3cccnc3)cc2c1Nc1ccc(F)c(Cl)c1` [Example 37, 4-(3-Chloro-4-fluoro-phenylamino)-6-[(pyridin-3-ylmethyl)-amino]-quinoline-3-carbonitrile] had an IC50 of 410 nM. On to `Cc1nn(C)c(N2CCOCC2)c1CNc1ccc2ncc(C#N)c(Nc3ccc(F)c(Cl)c3)c2c1` [Example 38, 4-(3-Chloro-4-fluoro-phenylamino)-6-[(1,3-dimethyl-5-morpholin-4-yl-1H-pyrazol-4-ylmethyl)-amino]-quinoline-3-carbonitrile], for which the IC50 turned out to be 2600 nM.

Compound `N#Cc1cnc2ccc(NCc3cccc[n+]3[O-])cc2c1Nc1ccc(F)c(Cl)c1` [Example 39, 4-(3-Chloro-4-fluoro-phenylamino)-6-[(1-oxy-pyridin-2-ylmethyl)-amino]-quinoline-3-carbonitrile] gave an IC50 of 11 nM. As for `CC(C)(C)OC(=O)N1CCC[C@H]1CNc1ccc2ncc(C#N)c(Nc3ccc(F)c(Cl)c3)c2c1` [Example 40, 2-{[4-(3-Chloro-4-fluoro-phenylamino)-3-cyano-quinolin-6-ylamino]-methyl}-L-pyrrolidine-1-carboxylic acid tert-butyl ester], 2400 nM corresponded to half-maximal inhibition (IC50).

Take `CC(C)(C)OC(=O)COc1ccc(Br)cc1CNc1ccc2ncc(C#N)c(Nc3ccc(F)c(Cl)c3)c2c1` [Example 42]: the IC50 is 26800 nM. `N#Cc1cnc2ccc(NC[C@@H]3CCCN3)cc2c1Nc1ccc(F)c(Cl)c1` [Example 43, 4-(3-Chloro-4-fluoro-phenylamino)-6-[(L-pyrrolidin-2-ylmethyl)-amino]-quinoline-3-carbonitrile] gave an IC50 of 15300 nM. `N#Cc1ccc(OCC(=O)O)c(CNc2ccc3ncc(C#N)c(Nc4ccc(F)c(Cl)c4)c3c2)c1` [Example 44, (2-{[4-(3-Chloro-4-fluoro-phenylamino)-3-cyano-quinolin-6-ylamino]-methyl}-4-cyano-phenoxy)-acetic acid] showed an IC50 of 3300 nM. Turning to `CC(C)(C)OC(=O)COc1ccc(C#N)cc1CNc1ccc2ncc(C#N)c(Nc3ccc(F)c(Cl)c3)c2c1` [Example 45, (2-{[4-(3-Chloro-4-fluoro-phenylamino)-3-cyano-quinolin-6-ylamino]-methyl)-4-cyano-phenoxy)-acetic acid tert-butyl ester], the IC50 was 14700 nM. On to `N#Cc1cnc2ccc(NC[C@H]3CCCN3)cc2c1Nc1ccc(F)c(Cl)c1` [Example 46, 4-(3-Chloro-4-fluoro-phenylamino)-6-[(D-pyrrolidin-2-ylmethyl)-amino]-quinoline-3-carbonitrile], for which the IC50 was determined as 30000 nM. With `COc1cc(NCc2cnc[nH]2)cc2c(Nc3ccc(F)c(Cl)c3)c(C#N)cnc12` [Example 47, 4-(3-Chloro-4-fluoro-phenylamino)-6-[(3H-imidazol-4-ylmethyl)-amino]-8-methoxy-quinoline-3-carbonitrile], it took 13 nM to reach half-maximal inhibition (IC50).

On to `COCCOc1ccc(Br)cc1CNc1ccc2ncc(C#N)c(Nc3ccc(F)c(Cl)c3)c2c1` [Example 48, 6-[5-Bromo-2-(2-methoxy-ethoxy)-benzylamino]-4-(3-chloro-4-fluoro-phenylamino)-quinoline-3-carbonitrile], for which the IC50 stood at 1500 nM. As for `N#Cc1cnc2ccc(NCc3c[nH]c4c(F)c(F)c(F)c(F)c34)cc2c1Nc1ccc(F)c(Cl)c1` [Example 49, 4-(3-Chloro-4-fluoro-phenylamino)-6-[(4,5,6,7-tetrafluoro-1H-indol-3-ylmethyl)-amino]-quinoline-3-carbonitrile], the figure is greater than 40000 nM; as for `CS(=O)(=O)c1ccc(CNc2ccc3ncc(C#N)c(Nc4ccc(F)c(Cl)c4)c3c2)cc1` [Example 50, 4-(3-Chloro-4-fluoro-phenylamino)-6-(4-methanesulfonyl-benzylamino)-quinoline-3-carbonitrile], 200 nM; as for `COc1ncccc1CNc1ccc2ncc(C#N)c(Nc3ccc(F)c(Cl)c3)c2c1` [Example 51, 4-(3-Chloro-4-fluoro-phenylamino)-6-[(2-methoxy-pyridin-3-ylmethyl)-amino]-quinoline-3-carbonitrile], 110 nM. With `CC(C)(C)OC(=O)N1CCC(CNc2ccc3ncc(C#N)c(Nc4ccc(F)c(Cl)c4)c3c2)C1` (stereo not drawn) [Example 52, 3-{[4-(3-Chloro-4-fluoro-phenylamino)-3-cyano-quinolin-6-ylamino]-methyl}-pyrrolidine-1-carboxylic acid tert-butyl ester], the IC50 amounted to 1500 nM. In the case of `N#Cc1cnc2ccc(NCc3cccc(O)c3)cc2c1Nc1ccc(F)c(Cl)c1` [Example 53, 4-(3-Chloro-4-fluoro-phenylamino)-6-(3-hydroxy-benzylamino)-quinoline-3-carbonitrile], the IC50 was found to be 540 nM. In turn, `N#Cc1cnc2ccc(NCc3ccccc3O)cc2c1Nc1ccc(F)c(Cl)c1` [Example 55, 4-(3-Chloro-4-fluoro-phenylamino)-6-(2-hydroxy-benzylamino)-quinoline-3-carbonitrile] had an IC50 of 1800 nM.

In the case of `CN(C)c1ccc(CNc2ccc3ncc(C#N)c(Nc4ccc(F)c(Cl)c4)c3c2)c(Br)c1` [Example 56, 6-(2-Bromo-4-dimethylamino-benzylamino)-4-(3-chloro-4-fluoro-phenylamino)-quinoline-3-carbonitrile], the IC50 was 3400 nM. With `COCCOc1ccc(C#N)cc1CNc1ccc2ncc(C#N)c(Nc3ccc(F)c(Cl)c3)c2c1` [Example 57, 4-(3-Chloro-4-fluoro-phenylamino)-6-[5-cyano-2-(2-methoxy-ethoxy)-benzylamino]-quinoline-3-carbonitrile], the IC50 was determined as 650 nM. `CCOCCOc1ccc(Br)c(CNc2ccc3ncc(C#N)c(Nc4ccc(F)c(Cl)c4)c3c2)c1` [Example 58, 6-[2-Bromo-5-(2-ethoxy-ethoxy)-benzylamino]-4-(3-chloro-4-fluoro-phenylamino)-quinoline-3-carbonitrile]: the IC50 is 1100 nM. The compound `CCOCCOc1ccc2c(c1)CN(c1ccc3ncc(C#N)c(Nc4ccc(F)c(Cl)c4)c3c1)C2=N` [Example 60] had an IC50 greater than 40000 nM. Compound `N#Cc1cnc2ccc(NCC3CCOCC3)cc2c1Nc1ccc(F)c(Cl)c1` [Example 61, 4-(3-Chloro-4-fluoro-phenylamino)-6-[(tetrahydro-pyran-4-ylmethyl)-amino]-quinoline-3-carbonitrile] showed an IC50 of 810 nM. As for `N#Cc1cnc2ccc(NCC3CCNC3)cc2c1Nc1ccc(F)c(Cl)c1` (stereo not drawn) [Example 62, 4-(3-Chloro-4-fluoro-phenylamino)-6-[(pyrrolidin-3-ylmethyl)-amino]-quinoline-3-carbonitrile], the figure is greater than 40000 nM.
